# From PubChem BioAssay (NCI)
#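 Tested at 5 concentrations; 48 h exposure; 96-well plates; endpoints linearly interpolated, else capped at highest concentration. At the TGI there is no net growth.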
# How the values were obtained:
# Assay in all cases: inhibition of tumour cell growth, NCI panel, 48 h
# MDA-MB-231 breast = tested on: MDA-MB-231 breast
# HT29 colon = tested on: HT29 colon
# A549 NSCLC = tested on: A549 NSCLC
# UO-31 renal = tested on: UO-31 renal
# OVCAR-4 ovarian = tested on: OVCAR-4 ovarian
# UACC-257 melanoma = tested on: UACC-257 melanoma
# UACC-62 melanoma = tested on: UACC-62 melanoma
# MALME-3M melanoma = tested on: MALME-3M melanoma
# SF-268 CNS = tested on: SF-268 CNS
# T-47D breast = tested on: T-47D breast
# ACHN renal = tested on: ACHN renal
# SK-OV-3 ovarian = tested on: SK-OV-3 ovarian
# OVCAR-5 ovarian = tested on: OVCAR-5 ovarian
# MCF7 breast = tested on: MCF7 breast
# M14 melanoma = tested on: M14 melanoma
# 786-0 renal = tested on: 786-0 renal
# CAKI-1 renal = tested on: CAKI-1 renal
# SN12C renal = tested on: SN12C renal
# A498 renal = tested on: A498 renal
# HOP-92 NSCLC = tested on: HOP-92 NSCLC
# SK-MEL-5 melanoma = tested on: SK-MEL-5 melanoma
# MDA-MB-435 = tested on: MDA-MB-435
# KM12 colon = tested on: KM12 colon
# SK-MEL-28 melanoma = tested on: SK-MEL-28 melanoma
# HCC-2998 colon = tested on: HCC-2998 colon
# HS 578T breast = tested on: HS 578T breast
# MOLT-4 leukemia = tested on: MOLT-4 leukemia
# COLO 205 colon = tested on: COLO 205 colon
# SW-620 colon = tested on: SW-620 colon
# TK-10 renal = tested on: TK-10 renal
# EKVX NSCLC = tested on: EKVX NSCLC
# SF-539 CNS = tested on: SF-539 CNS
# HL-60(TB) leukemia = tested on: HL-60(TB) leukemia
# U251 CNS = tested on: U251 CNS
# K-562 leukemia = tested on: K-562 leukemia
# NCI-H460 lung = tested on: NCI-H460 lung
# HCT-116 colon = tested on: HCT-116 colon
# SK-MEL-2 melanoma = tested on: SK-MEL-2 melanoma
# MDA-N = tested on: MDA-N
# NCI-H522 lung = tested on: NCI-H522 lung
# OVCAR-3 ovarian = tested on: OVCAR-3 ovarian
# HCT-15 colon = tested on: HCT-15 colon
# HOP-62 NSCLC = tested on: HOP-62 NSCLC
# PC-3 prostate = tested on: PC-3 prostate
# SNB-19 CNS = tested on: SNB-19 CNS
# NCI/ADR-RES ovarian = tested on: NCI/ADR-RES ovarian
# RPMI-8226 leukemia = tested on: RPMI-8226 leukemia
# OVCAR-8 ovarian = tested on: OVCAR-8 ovarian
# LOX IMVI melanoma = tested on: LOX IMVI melanoma
# CCRF-CEM leukemia = tested on: CCRF-CEM leukemia
# NCI-H226 lung = tested on: NCI-H226 lung
# NCI-H23 lung = tested on: NCI-H23 lung
# SNB-75 CNS = tested on: SNB-75 CNS
# SF-295 CNS = tested on: SF-295 CNS
# DU-145 prostate = tested on: DU-145 prostate
# RXF 393 renal = tested on: RXF 393 renal
# SR leukemia = tested on: SR leukemia
# IGROV1 ovarian = tested on: IGROV1 ovarian
compound,measurement,setting,value
COc1ccc(N(CN2C(=O)CCC2C(=O)O)C(C)=O)cc1 (stereo not given),TGI,MDA-MB-231 breast,> 100 µM
same,TGI,HT29 colon,> 100 µM
same,TGI,A549 NSCLC,> 100 µM
same,TGI,UO-31 renal,> 100 µM
same,TGI,OVCAR-4 ovarian,> 100 µM
same,TGI,UACC-257 melanoma,> 100 µM
same,TGI,UACC-62 melanoma,> 100 µM
same,TGI,MALME-3M melanoma,> 100 µM
same,TGI,SF-268 CNS,> 100 µM
same,TGI,T-47D breast,> 100 µM
same,TGI,ACHN renal,> 100 µM
same,TGI,SK-OV-3 ovarian,> 100 µM
same,TGI,OVCAR-5 ovarian,> 100 µM
same,TGI,MCF7 breast,> 100 µM
same,TGI,M14 melanoma,> 100 µM
same,TGI,786-0 renal,> 100 µM
same,TGI,CAKI-1 renal,> 100 µM
same,TGI,SN12C renal,> 100 µM
same,TGI,A498 renal,> 100 µM
same,TGI,HOP-92 NSCLC,> 100 µM
same,TGI,SK-MEL-5 melanoma,> 100 µM
same,TGI,MDA-MB-435,> 100 µM
same,TGI,KM12 colon,> 100 µM
same,TGI,SK-MEL-28 melanoma,> 100 µM
same,TGI,HCC-2998 colon,> 100 µM
same,TGI,HS 578T breast,> 100 µM
same,TGI,MOLT-4 leukemia,> 100 µM
same,TGI,COLO 205 colon,> 100 µM
same,TGI,SW-620 colon,> 100 µM
same,TGI,TK-10 renal,> 100 µM
same,TGI,EKVX NSCLC,> 100 µM
same,TGI,SF-539 CNS,> 100 µM
same,TGI,HL-60(TB) leukemia,> 100 µM
same,TGI,U251 CNS,> 100 µM
same,TGI,K-562 leukemia,> 100 µM
same,TGI,NCI-H460 lung,> 100 µM
same,TGI,HCT-116 colon,> 100 µM
same,TGI,SK-MEL-2 melanoma,> 100 µM
same,TGI,MDA-N,> 100 µM
same,TGI,NCI-H522 lung,> 100 µM
same,TGI,OVCAR-3 ovarian,> 100 µM
same,TGI,HCT-15 colon,> 100 µM
same,TGI,HOP-62 NSCLC,> 100 µM
same,TGI,PC-3 prostate,> 100 µM
same,TGI,SNB-19 CNS,> 100 µM
same,TGI,NCI/ADR-RES ovarian,> 100 µM
same,TGI,RPMI-8226 leukemia,> 100 µM
same,TGI,OVCAR-8 ovarian,> 100 µM
same,TGI,LOX IMVI melanoma,> 100 µM
same,TGI,CCRF-CEM leukemia,> 100 µM
same,TGI,NCI-H226 lung,> 100 µM
same,TGI,NCI-H23 lung,> 100 µM
same,TGI,SNB-75 CNS,> 100 µM
same,TGI,SF-295 CNS,> 100 µM
same,TGI,DU-145 prostate,> 100 µM
O=c1cc(-c2ccc(O)cc2)n(C2CC2)c2ccccc12,TGI,MDA-MB-231 breast,22.2 µM
same,TGI,HT29 colon,9.25 µM
same,TGI,A549 NSCLC,18.5 µM
same,TGI,UO-31 renal,21.1 µM
same,TGI,UACC-257 melanoma,25.8 µM
same,TGI,UACC-62 melanoma,14.8 µM
same,TGI,SF-268 CNS,24.5 µM
same,TGI,RXF 393 renal,8.42 µM
same,TGI,T-47D breast,20.7 µM
same,TGI,ACHN renal,5.99 µM
same,TGI,SK-OV-3 ovarian,42.6 µM
same,TGI,OVCAR-5 ovarian,19.4 µM
same,TGI,MCF7 breast,35.5 µM
same,TGI,M14 melanoma,20.7 µM
same,TGI,786-0 renal,17.1 µM
same,TGI,CAKI-1 renal,20.8 µM
same,TGI,SN12C renal,32.3 µM
same,TGI,HOP-92 NSCLC,19.8 µM
same,TGI,SK-MEL-5 melanoma,18.5 µM
same,TGI,MDA-MB-435,17.5 µM
same,TGI,KM12 colon,16.2 µM
same,TGI,HS 578T breast,24.8 µM
same,TGI,MOLT-4 leukemia,> 100 µM
same,TGI,COLO 205 colon,15.1 µM
same,TGI,SW-620 colon,26.7 µM
same,TGI,SF-539 CNS,18.9 µM
same,TGI,HL-60(TB) leukemia,81.6 µM
same,TGI,U251 CNS,21.6 µM
same,TGI,K-562 leukemia,> 100 µM
same,TGI,NCI-H460 lung,17.3 µM
same,TGI,HCT-116 colon,13.1 µM
same,TGI,SK-MEL-2 melanoma,8.2 µM
same,TGI,MDA-N,26.2 µM
same,TGI,NCI-H522 lung,9.69 µM
same,TGI,OVCAR-3 ovarian,16.8 µM
same,TGI,HCT-15 colon,16.8 µM
same,TGI,HOP-62 NSCLC,21.3 µM
same,TGI,PC-3 prostate,92.3 µM
same,TGI,SR leukemia,> 100 µM
same,TGI,IGROV1 ovarian,> 100 µM
same,TGI,SNB-19 CNS,50.1 µM
same,TGI,NCI/ADR-RES ovarian,38.8 µM
same,TGI,RPMI-8226 leukemia,9.05 µM
same,TGI,OVCAR-8 ovarian,47.1 µM
same,TGI,LOX IMVI melanoma,16.7 µM
same,TGI,CCRF-CEM leukemia,72.2 µM
same,TGI,NCI-H226 lung,16.4 µM
same,TGI,NCI-H23 lung,26.6 µM
same,TGI,SF-295 CNS,11.9 µM
same,TGI,DU-145 prostate,21.5 µM
